In patent EP4745135A1 (Gluetacs Therapeutics (Shanghai) Co., Ltd., priority 2023, dated 2025):
One block for each compound: values may come before it.

Tests used:
CK1α = target: T1, CK1α (Homo sapiens, UniProt P48729+Q96SW2); assay: Western blot, degradation of substrate protein in hPBMCs; type: cell-based
T1 construct: effects of the compounds of the present disclosure on the expression of target proteins in cells; endogenous in cells; host or cells: human PBMCs (Milecell Biotechnologies)

IKZF1 = target: T2, IKZF1 (Homo sapiens, UniProt Q13422+Q96SW2); assay: as above; type: cell-based
T2 construct: effects of the compounds of the present disclosure on the expression of target proteins in cells; endogenous in cells; host or cells: human PBMCs (Milecell Biotechnologies)
T2 sequence (Q13422 whole entry): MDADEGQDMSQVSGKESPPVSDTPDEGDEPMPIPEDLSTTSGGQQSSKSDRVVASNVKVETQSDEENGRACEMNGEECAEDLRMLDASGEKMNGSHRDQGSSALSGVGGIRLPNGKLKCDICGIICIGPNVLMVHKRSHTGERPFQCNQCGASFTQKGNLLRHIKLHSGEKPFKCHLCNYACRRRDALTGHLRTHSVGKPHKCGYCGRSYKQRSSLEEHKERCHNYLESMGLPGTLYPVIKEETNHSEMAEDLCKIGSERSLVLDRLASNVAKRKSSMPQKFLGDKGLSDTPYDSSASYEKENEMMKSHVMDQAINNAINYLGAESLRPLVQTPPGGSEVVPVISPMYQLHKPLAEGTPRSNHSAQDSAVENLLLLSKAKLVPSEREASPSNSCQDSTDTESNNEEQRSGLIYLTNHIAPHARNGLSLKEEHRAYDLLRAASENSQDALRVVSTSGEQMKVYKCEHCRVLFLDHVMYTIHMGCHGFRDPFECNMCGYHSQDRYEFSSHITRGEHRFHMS
T2 sequence (Q96SW2 whole entry): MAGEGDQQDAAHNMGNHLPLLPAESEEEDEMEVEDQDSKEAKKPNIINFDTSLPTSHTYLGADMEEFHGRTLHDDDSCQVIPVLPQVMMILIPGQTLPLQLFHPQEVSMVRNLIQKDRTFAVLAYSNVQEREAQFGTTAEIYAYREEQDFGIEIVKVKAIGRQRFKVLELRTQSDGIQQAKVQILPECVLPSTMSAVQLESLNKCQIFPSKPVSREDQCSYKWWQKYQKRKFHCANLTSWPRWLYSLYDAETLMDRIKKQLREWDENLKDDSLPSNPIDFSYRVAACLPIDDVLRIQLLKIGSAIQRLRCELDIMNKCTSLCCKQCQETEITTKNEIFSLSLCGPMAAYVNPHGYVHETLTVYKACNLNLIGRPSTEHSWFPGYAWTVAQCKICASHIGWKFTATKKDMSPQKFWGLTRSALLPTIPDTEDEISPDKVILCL
T2 sequence (Q16531 whole entry partner): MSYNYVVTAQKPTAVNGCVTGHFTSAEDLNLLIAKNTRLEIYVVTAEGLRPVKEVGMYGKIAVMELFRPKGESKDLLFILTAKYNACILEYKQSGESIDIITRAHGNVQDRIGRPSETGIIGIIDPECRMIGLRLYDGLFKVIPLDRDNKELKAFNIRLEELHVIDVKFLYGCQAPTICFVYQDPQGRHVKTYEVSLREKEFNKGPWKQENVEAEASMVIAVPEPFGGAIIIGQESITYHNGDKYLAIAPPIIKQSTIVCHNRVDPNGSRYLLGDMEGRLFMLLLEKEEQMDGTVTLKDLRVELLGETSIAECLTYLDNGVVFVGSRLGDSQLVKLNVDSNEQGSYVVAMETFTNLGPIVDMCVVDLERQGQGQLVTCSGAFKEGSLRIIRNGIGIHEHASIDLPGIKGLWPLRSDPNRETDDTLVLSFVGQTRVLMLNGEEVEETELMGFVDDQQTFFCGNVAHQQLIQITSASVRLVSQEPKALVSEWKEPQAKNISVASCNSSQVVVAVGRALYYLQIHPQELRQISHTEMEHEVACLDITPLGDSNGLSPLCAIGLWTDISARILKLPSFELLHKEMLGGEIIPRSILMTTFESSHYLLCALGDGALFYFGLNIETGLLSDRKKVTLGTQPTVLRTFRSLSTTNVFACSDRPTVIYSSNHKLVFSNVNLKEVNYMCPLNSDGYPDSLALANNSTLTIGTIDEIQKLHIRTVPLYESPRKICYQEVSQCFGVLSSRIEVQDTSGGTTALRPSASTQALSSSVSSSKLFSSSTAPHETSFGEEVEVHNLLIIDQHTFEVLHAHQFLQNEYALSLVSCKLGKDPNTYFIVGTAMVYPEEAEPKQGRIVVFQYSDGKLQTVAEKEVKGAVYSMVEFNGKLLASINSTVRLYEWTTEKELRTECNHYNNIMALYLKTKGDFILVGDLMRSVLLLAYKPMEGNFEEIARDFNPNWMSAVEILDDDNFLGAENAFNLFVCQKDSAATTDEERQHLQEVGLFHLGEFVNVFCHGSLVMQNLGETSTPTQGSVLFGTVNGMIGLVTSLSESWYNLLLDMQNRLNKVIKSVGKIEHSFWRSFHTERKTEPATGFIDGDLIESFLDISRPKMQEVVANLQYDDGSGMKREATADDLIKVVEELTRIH

IKZF2 = target: T3, IKZF2 (Homo sapiens, UniProt Q96SW2+Q9UKS7); assay: as above; type: cell-based
T3 construct: effects of the compounds of the present disclosure on the expression of target proteins in cells; endogenous in cells; host or cells: human PBMCs (Milecell Biotechnologies)
T3 sequence (Q9UKS7 whole entry): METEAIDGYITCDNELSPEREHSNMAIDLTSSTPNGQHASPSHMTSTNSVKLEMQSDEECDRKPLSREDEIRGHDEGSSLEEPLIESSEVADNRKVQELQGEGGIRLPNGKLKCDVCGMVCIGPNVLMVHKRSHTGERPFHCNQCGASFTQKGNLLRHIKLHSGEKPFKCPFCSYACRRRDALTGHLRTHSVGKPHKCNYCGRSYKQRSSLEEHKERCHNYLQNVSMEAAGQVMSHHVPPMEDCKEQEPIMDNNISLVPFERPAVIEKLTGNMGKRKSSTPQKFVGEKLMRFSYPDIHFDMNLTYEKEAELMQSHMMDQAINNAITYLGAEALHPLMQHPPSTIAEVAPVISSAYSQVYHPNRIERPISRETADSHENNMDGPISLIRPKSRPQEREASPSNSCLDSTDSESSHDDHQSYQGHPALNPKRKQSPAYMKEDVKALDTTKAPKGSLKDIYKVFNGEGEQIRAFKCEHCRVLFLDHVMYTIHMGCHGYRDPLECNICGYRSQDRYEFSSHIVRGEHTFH
T3 sequence (Q96SW2 whole entry): as the sequence (Q96SW2 whole entry) above
T3 sequence (Q16531 whole entry partner): as the sequence (Q16531 whole entry partner) above

IKZF3 = target: T4, IKZF3 (Homo sapiens, UniProt Q96SW2+Q9UKT9); assay: as above; type: cell-based
T4 construct: effects of the compounds of the present disclosure on the expression of target proteins in cells; endogenous in cells; host or cells: human PBMCs (Milecell Biotechnologies)
T4 sequence (Q9UKT9 whole entry): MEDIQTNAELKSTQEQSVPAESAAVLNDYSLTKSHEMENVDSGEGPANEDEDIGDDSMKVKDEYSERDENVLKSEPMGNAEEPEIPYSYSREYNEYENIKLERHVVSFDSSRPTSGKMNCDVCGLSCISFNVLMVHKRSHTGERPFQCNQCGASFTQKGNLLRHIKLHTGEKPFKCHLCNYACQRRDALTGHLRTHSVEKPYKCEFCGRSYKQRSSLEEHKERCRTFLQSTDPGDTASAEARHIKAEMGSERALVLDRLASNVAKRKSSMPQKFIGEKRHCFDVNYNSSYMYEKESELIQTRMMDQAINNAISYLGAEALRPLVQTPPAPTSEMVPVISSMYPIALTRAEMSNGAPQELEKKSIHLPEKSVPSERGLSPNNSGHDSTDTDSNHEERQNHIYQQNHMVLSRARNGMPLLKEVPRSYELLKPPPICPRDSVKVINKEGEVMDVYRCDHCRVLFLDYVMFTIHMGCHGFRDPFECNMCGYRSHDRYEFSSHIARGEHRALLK
T4 sequence (Q96SW2 whole entry): as the sequence (Q96SW2 whole entry) above
T4 sequence (Q16531 whole entry partner): as the sequence (Q16531 whole entry partner) above

WEE1 = target: T5, WEE1 (Homo sapiens, UniProt P30291+Q96SW2); assay: as above; type: cell-based
T5 construct: effects of the compounds of the present disclosure on the expression of target proteins in cells; endogenous in cells; host or cells: human PBMCs (Milecell Biotechnologies)
T5 sequence (P30291 whole entry): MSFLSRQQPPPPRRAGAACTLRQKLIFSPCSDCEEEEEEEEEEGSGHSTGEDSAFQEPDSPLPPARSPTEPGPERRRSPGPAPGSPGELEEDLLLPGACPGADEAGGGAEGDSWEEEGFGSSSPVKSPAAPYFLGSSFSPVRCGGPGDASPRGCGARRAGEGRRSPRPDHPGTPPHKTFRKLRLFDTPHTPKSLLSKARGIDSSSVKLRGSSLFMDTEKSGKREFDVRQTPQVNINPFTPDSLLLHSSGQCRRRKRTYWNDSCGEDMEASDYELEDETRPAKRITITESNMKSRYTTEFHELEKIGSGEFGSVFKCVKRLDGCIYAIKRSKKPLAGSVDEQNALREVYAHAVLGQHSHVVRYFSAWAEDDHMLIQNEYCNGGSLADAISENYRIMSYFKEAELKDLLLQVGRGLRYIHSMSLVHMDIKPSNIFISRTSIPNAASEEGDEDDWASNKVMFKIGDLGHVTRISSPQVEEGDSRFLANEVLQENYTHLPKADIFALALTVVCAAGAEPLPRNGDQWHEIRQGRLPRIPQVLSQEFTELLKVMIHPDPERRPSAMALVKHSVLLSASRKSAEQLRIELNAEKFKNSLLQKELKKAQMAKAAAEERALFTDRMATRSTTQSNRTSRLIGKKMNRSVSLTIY
T5 sequence (Q96SW2 whole entry): as the sequence (Q96SW2 whole entry) above
T5 sequence (Q16531 whole entry partner): as the sequence (Q16531 whole entry partner) above

GSPT1 = assay: as above; type: cell-based, Human
[1] = target: T6, human Cereblon WT GST-tagged protein (Homo sapiens, UniProt Q96SW2); assay: CRBN-binding affinity, HTRF (CEREBLON BINDING kit); settings: for inhibition at 0.5 µM: read-out: Inhibition Rate at 0.5 µM (%); for inhibition at 2 µM: read-out: Inhibition Rate at 2 µM (%)
T6 construct: purchased CISBIO 64BDCRBNPEH
T6 sequence (Q96SW2 whole entry): as the sequence (Q96SW2 whole entry) above

[2] = tested on: Human multiple myeloma peripheral blood B lymphocyte cell (RPMI-8226); assay: Tumor cell proliferation inhibition (CellTiter-Meiluncell luminescent cell viability assay); settings: RPMI-8226, 96 h
[3] = tested on: Human multiple myeloma cell (MM.1S); assay: as above; settings: for inhibition at 0.01 µM / inhibition at 0.5 µM: Homo sapiens, MM1.S, 96 h; for inhibition at 0.01 µM: read-out: Inhibition Rate at 10 nM (%); for inhibition at 0.5 µM: read-out: Inhibition Rate at 500 nM (%)
[4] = tested on: Human myeloid monocytic leukemia cell (MV-4-11); assay: as above; settings: MV4-11, 96 h; for inhibition at 0.01 µM: read-out: Inhibition Rate at 10 nM (%); for inhibition at 0.5 µM: read-out: Inhibition Rate at 500 nM (%)
[5] = tested on: Human breast cancer cell (MCF-7); assay: as above; settings: MCF7, 96 h; for inhibition at 0.01 µM: read-out: Inhibition Rate at 10 nM (%); for inhibition at 0.5 µM: read-out: Inhibition Rate at 500 nM (%)
[6] = tested on: Human acute T lymphocytic leukemia cell (Molt4); assay: as above; settings: MOLT-4, 96 h
[7] = Western blot, 24 hours of compound treatment, compounds tested at 50 nM and 500 nM (concentration for the table not stated)
[8] = read-out: Inhibition Rate at 10 nM (%)
[9] = read-out: Inhibition Rate at 500 nM (%)
[10] = 24 hours treatment, compounds at 50 nM and 500 nM (concentration behind the class not stated)

T1 sequence (P48729 whole entry): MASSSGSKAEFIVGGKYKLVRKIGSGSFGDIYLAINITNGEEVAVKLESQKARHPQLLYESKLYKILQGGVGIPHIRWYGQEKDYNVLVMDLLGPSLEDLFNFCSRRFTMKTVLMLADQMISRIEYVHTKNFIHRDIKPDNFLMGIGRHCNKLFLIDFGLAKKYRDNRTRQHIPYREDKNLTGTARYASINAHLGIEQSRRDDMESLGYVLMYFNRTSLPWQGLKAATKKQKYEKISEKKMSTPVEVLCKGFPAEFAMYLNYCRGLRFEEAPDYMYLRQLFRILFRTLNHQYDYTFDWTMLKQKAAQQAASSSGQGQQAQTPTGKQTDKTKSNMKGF
T1 sequence (Q96SW2 whole entry): as the sequence (Q96SW2 whole entry) above
T1 sequence (Q16531 whole entry partner): as the sequence (Q16531 whole entry partner) above

Compound: Cc1ccc(N2CCN(Cc3cccc4c3CN(C3CCC(=O)NC3=O)C4=S)CC2)c(C)c1 (stereo not drawn) [GT-08504, 3-(4-((4-(2,4-dimethylphenyl)piperazin-1-yl)methyl)-1-thioxoisoindolin-2-yl)piperidine-2,6-dione]
CK1α substrate protein remaining % (CK1α; [7]): B (80%< substrate protein remaining %≤ 100%) | IKZF 1 substrate protein remaining % (IKZF1; [7]): B (80%< substrate protein remaining %≤ 100%) | IKZF2 substrate protein remaining % (IKZF2; [7]): B (80%< substrate protein remaining %≤ 100%) | IKZF3 substrate protein remaining % (IKZF3; [7]): A (0% ≤ substrate protein remaining % ≤ 80%) | Wee1 substrate protein remaining % (WEE1; [7]): A (0% ≤ substrate protein remaining % ≤ 80%) | GSPT1 substrate protein remaining % (GSPT1; [7]): A (0% ≤ substrate protein remaining % ≤ 80%) | inhibition at 0.5 µM [1]: 30 to 40% | inhibition at 2 µM [1]: 60 to 80% | inhibition at 0.01 µM [3]: 30 to 40% | inhibition at 0.5 µM [3]: 50 to 60% | inhibition at 0.01 µM [4]: 40 to 60% | inhibition at 0.5 µM [4]: 40 to 60% | inhibition at 0.01 µM [5]: 20 to 30% | inhibition at 0.5 µM [5]: 40 to 50%

Compound: O=C1CCC(N2Cc3c(CN4CCN(c5n[nH]c6cc(F)ccc56)CC4)cccc3C2=S)C(=O)N1 (stereo not drawn) [GT-08840, 3-(4-((4-(6-fluoro-1H-indazol-3-yl)piperazin-1-yl)methyl)-1-thioxoisoindolin-2-yl)piperidine-2,6-dione]
CK1α substrate protein remaining % (CK1α; [7]): B (80%< substrate protein remaining %≤ 100%) | IKZF 1 substrate protein remaining % (IKZF1; [7]): B (80%< substrate protein remaining %≤ 100%) | IKZF2 substrate protein remaining % (IKZF2; [7]): B (80%< substrate protein remaining %≤ 100%) | IKZF3 substrate protein remaining % (IKZF3; [7]): B (80%< substrate protein remaining %≤ 100%) | Wee1 substrate protein remaining % (WEE1; [7]): A (0% ≤ substrate protein remaining % ≤ 80%) | GSPT1 substrate protein remaining % (GSPT1; [7]): B (80%< substrate protein remaining %≤ 100%) | inhibition at 0.5 µM [1]: 60 to 80% | inhibition at 2 µM [1]: 80 to 100% | inhibition at 0.01 µM [4]: 40 to 60% | inhibition at 0.5 µM [4]: 40 to 60% | inhibition at 0.01 µM [5]: 50 to 60% | inhibition at 0.5 µM [5]: 60 to 70%

Compound: O=C1CCC(N2Cc3c(CN4CCC(N5CCc6cc(F)ccc65)CC4)cccc3C2=S)C(=O)N1 (stereo not drawn) [GT-08845, 3-(4-((4-(5-fluoroindolin-1-yl)piperidin-1-yl)methyl)-1-thioxoisoindolin-2-yl)piperidine-2,6-dione]
CK1α substrate protein remaining % (CK1α; [7]): B (80%< substrate protein remaining %≤ 100%) | IKZF 1 substrate protein remaining % (IKZF1; [7]): B (80%< substrate protein remaining %≤ 100%) | IKZF2 substrate protein remaining % (IKZF2; [7]): B (80%< substrate protein remaining %≤ 100%) | IKZF3 substrate protein remaining % (IKZF3; [7]): B (80%< substrate protein remaining %≤ 100%) | Wee1 substrate protein remaining % (WEE1; [7]): A (0% ≤ substrate protein remaining % ≤ 80%) | GSPT1 substrate protein remaining % (GSPT1; [7]): A (0% ≤ substrate protein remaining % ≤ 80%) | inhibition at 0.5 µM [1]: 40 to 53% | inhibition at 2 µM [1]: 80 to 100% | inhibition at 0.01 µM [3]: 20 to 30% | inhibition at 0.5 µM [3]: 40 to 50% | inhibition at 0.01 µM [5]: 50 to 60% | inhibition at 0.5 µM [5]: 60 to 70%

Compound: O=C1CCC(N2Cc3c(CN4CCC(N5C(=O)COc6cc(F)ccc65)CC4)cccc3C2=S)C(=O)N1 (stereo not drawn) [GT-08853, 3-(4-((4-(7-fluoro-3-oxo-2,3-dihydro-4H-benzo[b][1,4]oxazin-4-yl)piperidin-1-yl)methyl)-1-thioxoisoindolin-2-yl)piperidine-2,6-dione]
CK1α substrate protein remaining % (CK1α; [10]): B (80%< substrate protein remaining %≤ 100%) | IKZF 1 substrate protein remaining % (IKZF1; [10]): B (80%< substrate protein remaining %≤ 100%) | IKZF2 substrate protein remaining % (IKZF2; [10]): B (80%< substrate protein remaining %≤ 100%) | IKZF3 substrate protein remaining % (IKZF3; [10]): A (0% ≤ substrate protein remaining % ≤ 80%) | Wee1 substrate protein remaining % (WEE1; [10]): B (80%< substrate protein remaining %≤ 100%) | GSPT1 substrate protein remaining % (GSPT1; [10]): B (80%< substrate protein remaining %≤ 100%) | inhibition at 0.5 µM [1]: 60 to 80% | inhibition at 2 µM [1]: 80 to 100% | inhibition at 0.01 µM [3]: 30 to 40% | inhibition at 0.5 µM [3]: 40 to 50% | inhibition at 0.01 µM [5]: 5 to 10% | inhibition at 0.5 µM [5]: 40 to 50%

Compound: Cn1cc(C2CCN(Cc3ccc4c(c3)CN(C3CCC(=O)NC3=O)C4=S)CC2)c2ccc(F)cc21 (stereo not drawn) [GT-09267, 3-(5-((4-(6-fluoro-1-methyl-1H-indol-3-yl)piperidin-1-yl)methyl)-1-thioxoisoindolin-2-yl)piperidine-2,6-dione]
CK1α substrate protein remaining % (CK1α; [10]): B (80%< substrate protein remaining %≤ 100%) | IKZF 1 substrate protein remaining % (IKZF1; [10]): A (0% ≤ substrate protein remaining % ≤ 80%) | IKZF2 substrate protein remaining % (IKZF2; [10]): A (0% ≤ substrate protein remaining % ≤ 80%) | IKZF3 substrate protein remaining % (IKZF3; [10]): A (0% ≤ substrate protein remaining % ≤ 80%) | Wee1 substrate protein remaining % (WEE1; [10]): A (0% ≤ substrate protein remaining % ≤ 80%) | GSPT1 substrate protein remaining % (GSPT1; [10]): A (0% ≤ substrate protein remaining % ≤ 80%) | inhibition at 0.5 µM [1]: 53 to 60% | inhibition at 2 µM [1]: 80 to 100% | inhibition at 0.01 µM [3]: 70 to 80% | inhibition at 0.5 µM [3]: 80 to 100% | inhibition at 0.01 µM [6, 8]: 80 to 100% | inhibition at 0.5 µM [6, 9]: 80 to 100% | inhibition at 0.01 µM [4]: 80 to 100% | inhibition at 0.5 µM [4]: 80 to 100% | inhibition at 0.01 µM [5]: 5 to 10% | inhibition at 0.5 µM [5]: 70 to 80%

Compound: O=C1CCC(N2Cc3cc(CN4CCC(N5CCCc6cc(F)ccc65)CC4)ccc3C2=S)C(=O)N1 (stereo not drawn) [GT-09271, 3-(5-((4-(6-fluoro-3,4-dihydroquinolin-1(2H)-yl)piperidin-1-yl)methyl)-1-thioxoisoindolin-2-yl)piperidine-2,6-dione]
inhibition at 0.5 µM [1]: 60 to 80% | inhibition at 2 µM [1]: 80 to 100% | inhibition at 0.01 µM [4]: 40 to 60% | inhibition at 0.5 µM [4]: 40 to 60% | inhibition at 0.01 µM [5]: 20 to 30% | inhibition at 0.5 µM [5]: 40 to 50%

More lines, main results first:

inhibition at 0.5 µM [1]: 40 to 53% | inhibition at 2 µM [1]: 80 to 100%
Compound: O=C1CCC(N2Cc3c(CN4CCN(C(c5ccccc5)c5ccncc5)CC4)cccc3C2=S)C(=O)N1 (stereo not drawn) [GT-08204, 3-(4-((4-(phenyl(pyridin-4-yl)methyl)piperazin-1-yl)methyl)-1-thioxoisoindolin-2-yl)piperidine-2,6-dione]
CK1α substrate protein remaining % (CK1α; [7]): B (80%< substrate protein remaining %≤ 100%) | IKZF 1 substrate protein remaining % (IKZF1; [7]): B (80%< substrate protein remaining %≤ 100%) | IKZF2 substrate protein remaining % (IKZF2; [7]): B (80%< substrate protein remaining %≤ 100%) | IKZF3 substrate protein remaining % (IKZF3; [7]): B (80%< substrate protein remaining %≤ 100%) | Wee1 substrate protein remaining % (WEE1; [7]): A (0% ≤ substrate protein remaining % ≤ 80%) | GSPT1 substrate protein remaining % (GSPT1; [7]): B (80%< substrate protein remaining %≤ 100%) | inhibition at 0.01 µM [2, 8]: 60 to 70% | inhibition at 0.5 µM [2, 9]: 70 to 80%

inhibition at 0.5 µM [1]: 53 to 60% | inhibition at 2 µM [1]: 80 to 100%
Compound: O=C1CCC(N2Cc3c(CN4CC(C5CCOc6cc(F)ccc65)C4)cccc3C2=S)C(=O)N1 (stereo not drawn) [GT-08859, 3-(4-((3-(7-fluorochroman-4-yl)azetidin-1-yl)methyl)-1-thioxoisoindolin-2-yl)piperidine-2,6-dione]
CK1α substrate protein remaining % (CK1α; [10]): B (80%< substrate protein remaining %≤ 100%) | IKZF 1 substrate protein remaining % (IKZF1; [10]): B (80%< substrate protein remaining %≤ 100%) | IKZF2 substrate protein remaining % (IKZF2; [10]): B (80%< substrate protein remaining %≤ 100%) | IKZF3 substrate protein remaining % (IKZF3; [10]): B (80%< substrate protein remaining %≤ 100%) | Wee1 substrate protein remaining % (WEE1; [10]): B (80%< substrate protein remaining %≤ 100%) | GSPT1 substrate protein remaining % (GSPT1; [10]): A (0% ≤ substrate protein remaining % ≤ 80%) | inhibition at 0.01 µM [3]: 30 to 40% | inhibition at 0.5 µM [3]: 50 to 60% | inhibition at 0.01 µM [5]: 50 to 60% | inhibition at 0.5 µM [5]: 40 to 50%

inhibition at 0.5 µM [1]: 60 to 80% | inhibition at 2 µM [1]: 80 to 100%
Compound: Cc1cc(N2CCN(Cc3ccc4c(c3)CN(C3CCC(=O)NC3=O)C4=S)CC2)cc(C)n1 (stereo not drawn) [GT-09247, 3-(5-((4-(2,6-dimethylpyridin-4-yl)piperazin-1-yl)methyl)-1-thioxoisoindolin-2-yl)piperidine-2,6-dione]
inhibition at 0.01 µM [3]: 50 to 60% | Inhibition Rate at 500 nM (%) ([3]; MM.1S, 500 nM, 96 hours): la7 | inhibition at 0.01 µM [4]: 40 to 60% | inhibition at 0.5 µM [4]: 40 to 60% | inhibition at 0.01 µM [5]: 20 to 30% | inhibition at 0.5 µM [5]: 40 to 50%
